Experimental data: patent US20140323304A1, “HERBICIDE COMPOSITION AND WEED CONTROL METHOD” (SDS BIOTECH K.K., priority 2008, published 2014)

Key:
Test in all cases: Pot test on the foliar application (post-emergence treatment of weeds)
Format in all cases: in vivo
Conditions in all cases: day 10
Amaranthus viridis = tested on: Amaranthus viridis
Method: (§1) Field soil was packed in a 350 cm^2 plastic pot and seeds of Echinochloa utilis, Digitaria adscendens, Avena fatua, Amaranthus viridis, Chenopodium album and Ipomoea purpurea were sown and covered with soil of about 1 cm thickness. After water absorption and at day 25 after the seeding, sugi-refined oil diluted with a stock solution or water was sprayed uniformly in a spray volume of 200 ml per 1 m^2. The test was performed in a glass greenhouse at a temperature of from 18 to 30° C., and the soil was appropriately moistened from the bottom side.
(§2) Using each of the oily extracts obtained in Preparation Example 2, a flowable (emulsion) formulation was prepared according to Preparation Example 2. The herbicidal activity in the post-emergence stage was evaluated by the method according to Test Example 3 except that the dilution ratio of the spray solution with water was fixed to 4-fold dilution.
(§3) Using the liquid formulation prepared in Formulation Example 3, the herbicidal activity in the post-emergence stage was evaluated by the method according to Test Example 3 except that the test was conducted under a fixed condition that the solution was used as a stock solution without being diluted with water. Also, a formulation using water as a substitute of an oily extract, i.e. a formulation containing sodium bicarbonate only was prepared for comparison, and its herbicidal effect was evaluated as a comparative example. The formulation was sprayed uniformly in a spray volume of 200 ml per 1 m^2.
as §3, with “4,” for “3,”, “treatment of weeds” for “stage”, “calcium borate” for “sodium bicarbonate”
as §3, with “5,” for “3,”, “treatment of weeds” for “stage”, “d-limonene” for “sodium bicarbonate”
(§4) Using these essential oils, a flowable (emulsion) formulation was prepared according to Formulation Example 2. The herbicidal activity in the post-emergence treatment of weeds was evaluated by the method according to Test Example 3 except that the dilution ratio of the spray solution with water was fixed to 2-fold dilution.

Avena fatua = tested on: Avena fatua
Method: as §1, §2, §3
as §3, with “4,” for “3,”, “treatment of weeds” for “stage”, “calcium borate” for “sodium bicarbonate”
as §3, with “5,” for “3,”, “treatment of weeds” for “stage”, “d-limonene” for “sodium bicarbonate”
as §4

Chenopodium album = tested on: Chenopodium album
Method: as §1, §2, §3
as §3, with “4,” for “3,”, “treatment of weeds” for “stage”, “calcium borate” for “sodium bicarbonate”
as §3, with “5,” for “3,”, “treatment of weeds” for “stage”, “d-limonene” for “sodium bicarbonate”
as §4

Digitaria adscendens = tested on: Digitaria adscendens
Method: as §1, §2, §3
as §3, with “4,” for “3,”, “treatment of weeds” for “stage”, “calcium borate” for “sodium bicarbonate”
as §3, with “5,” for “3,”, “treatment of weeds” for “stage”, “d-limonene” for “sodium bicarbonate”
as §4

Echinochloa utilis = tested on: Echinochloa utilis
Method: as §1, §2, §3
as §3, with “4,” for “3,”, “treatment of weeds” for “stage”, “calcium borate” for “sodium bicarbonate”
as §3, with “5,” for “3,”, “treatment of weeds” for “stage”, “d-limonene” for “sodium bicarbonate”
as §4

Ipomoea purpurea = tested on: Ipomoea purpurea
Method: as §1, §2, §3
as §3, with “4,” for “3,”, “treatment of weeds” for “stage”, “calcium borate” for “sodium bicarbonate”
as §3, with “5,” for “3,”, “treatment of weeds” for “stage”, “d-limonene” for “sodium bicarbonate”
as §4

[1] = undiluted liquid formulation 200 ml/m^2, per 1 m^2: 20 ml of the essential oil and 20 ml of d-limonene
[2] = undiluted liquid formulation 200 ml/m^2, per 1 m^2: 20 ml of the essential oil and 12 g of sodium bicarbonate
[3] = undiluted liquid formulation 200 ml/m^2, per 1 m^2: 20 ml of the essential oil and 12 g of calcium borate

C=C(C)[C@H]1CC=C(C)CC1 [Comparative Example (d-limonene only), d-limonene]
Herbicidal activity Amaranthus viridis (Amaranthus viridis; [1]): 6 (56 to 65%) | Herbicidal activity Avena fatua (Avena fatua; [1]): 5 (46 to 55%) | Herbicidal activity Chenopodium album (Chenopodium album; [1]): 6 (56 to 65%) | Herbicidal activity Digitaria adscendens (Digitaria adscendens; [1]): 7 (66 to 75%) | Herbicidal activity Echinochloa utilis (Echinochloa utilis; [1]): 5 (46 to 55%) | Herbicidal activity Ipomoea purpurea (Ipomoea purpurea; [1]): 4 (36 to 45%)

O=C([O-])O.[Na+] [sodium bicarbonate]
Herbicidal activity Amaranthus viridis (Amaranthus viridis; [2]): 3 (26 to 35%) | Herbicidal activity Avena fatua (Avena fatua; [2]): 4 (36 to 45%) | Herbicidal activity Chenopodium album (Chenopodium album; [2]): 4 (36 to 45%) | Herbicidal activity Digitaria adscendens (Digitaria adscendens; [2]): 4 (36 to 45%) | Herbicidal activity Echinochloa utilis (Echinochloa utilis; [2]): 3 (26 to 35%) | Herbicidal activity Ipomoea purpurea (Ipomoea purpurea; [2]): 2 (16 to 25%)

calcium borate
Herbicidal activity Amaranthus viridis (Amaranthus viridis; [3]): 4 (36 to 45%) | Herbicidal activity Avena fatua (Avena fatua; [3]): 5 (46 to 55%) | Herbicidal activity Chenopodium album (Chenopodium album; [3]): 4 (36 to 45%) | Herbicidal activity Digitaria adscendens (Digitaria adscendens; [3]): 4 (36 to 45%) | Herbicidal activity Echinochloa utilis (Echinochloa utilis; [3]): 4 (36 to 45%) | Herbicidal activity Ipomoea purpurea (Ipomoea purpurea; [3]): 3 (26 to 35%)
